Data published in ChEMBL document CHEMBL3885861, “Open TG-GATES”.

Species: Rattus norvegicus
Assay: Open TG-GATES - Regimen: Single
Assay type: toxicity, organism-based, Sprague-Dawley
Set-up: regimen Single, gender Male, age 6 weeks
Conditions: in vivo, po, 20 mg/kg, route gavage, dose level Low; for APTT / Bas / Eos / Fbg / Hb / Ht / Lym / MCH / MCHC / MCV / Mono / Neu / PT / Plat / RBC / Ret / WBC: tissue Blood; for KIDNEY_L / KIDNEY_R / KIDNEY_TOTAL: tissue Kidney; for LIVER: tissue Liver; for A/G / ALP / ALT / AST / BUN / CRE / Ca / Cl / DBIL / GLC / IP / K / LDH / Na / PL / RALB / TBIL / TC / TG / TP / gamma-GTP: tissue Plasma

## Cn1c(=O)c2[nH]cnc2n(C)c1=O.O [THEOPHYLLINE]
3 h
  TERMINAL_BW: 211.4 g
  APTT: 22.4 s
  Bas: 0%
  Eos: 1%
  Fbg: 298.2 mg/dL
  Hb: 13.1 g/dL
  Ht: 39.2%
  Lym: 80.4%
  MCH: 21.1 pg
  MCHC: 33.5%
  MCV: 62.9 fL
  Mono: 2.4%
  Neu: 15.2%
  PT: 15.8 s
  Plat: 125.8 x10_4/uL
  RBC: 623 x10_4/ul
  Ret: 7.2%
  WBC: 83.9 x10_2/uL
  KIDNEY_L: 0.9 g
  KIDNEY_R: 0.9 g
  KIDNEY_TOTAL: 1.8 g
  LIVER: 9.4 g
  A/G: 1.3
  ALP: 1988.6 IU/L
  ALT: 46.8 IU/L
  AST: 75 IU/L
  BUN: 14.4 mg/dL
  CRE: 0.2 mg/dL
  Ca: 10.6 mg/dL
  Cl: 108.8 meq/L
  DBIL: 0 mg/dL
  GLC: 181.8 mg/dL
  IP: 7.2 mg/dL
  K: 3.5 meq/L
  LDH: 159.2 IU/L
  Na: 141.8 meq/L
  PL: 137.4 mg/dL
  RALB: 3.2 g/dL
  TBIL: 0.02 mg/dL
  TC: 80.6 mg/dL
  TG: 45.4 mg/dL
  TP: 5.8 g/dL
  gamma-GTP: 1.2 IU/L
6 h
  TERMINAL_BW: 213.7 g
  APTT: 23.5 s
  Bas: 0%
  Eos: 0.6%
  Fbg: 315.4 mg/dL
  Hb: 13.8 g/dL
  Ht: 41.9%
  Lym: 82.8%
  MCH: 20.8 pg
  MCHC: 33.1%
  MCV: 63 fL
  Mono: 2.4%
  Neu: 12.8%
  PT: 15.5 s
  Plat: 129.9 x10_4/uL
  RBC: 664.6 x10_4/ul
  Ret: 7.4%
  WBC: 99.4 x10_2/uL
  KIDNEY_L: 0.9 g
  KIDNEY_R: 0.9 g
  KIDNEY_TOTAL: 1.9 g
  LIVER: 9 g
  A/G: 1.2
  ALP: 1532.8 IU/L
  ALT: 46 IU/L
  AST: 85.2 IU/L
  BUN: 9.8 mg/dL
  CRE: 0.2 mg/dL
  Ca: 10.5 mg/dL
  Cl: 108.2 meq/L
  DBIL: 0 mg/dL
  GLC: 178.2 mg/dL
  IP: 8.4 mg/dL
  K: 3.8 meq/L
  LDH: 174.8 IU/L
  Na: 141 meq/L
  PL: 126.6 mg/dL
  RALB: 3.1 g/dL
  TBIL: 0.02 mg/dL
  TC: 73.2 mg/dL
  TG: 51.8 mg/dL
  TP: 5.6 g/dL
  gamma-GTP: 1.2 IU/L
9 h
  TERMINAL_BW: 210.6 g
  APTT: 23.2 s
  Bas: 0%
  Eos: 1%
  Fbg: 297 mg/dL
  Hb: 13.5 g/dL
  Ht: 40.9%
  Lym: 78%
  MCH: 20.4 pg
  MCHC: 33%
  MCV: 61.6 fL
  Mono: 2.4%
  Neu: 18%
  PT: 15.6 s
  Plat: 121.1 x10_4/uL
  RBC: 666.6 x10_4/ul
  Ret: 6.9%
  WBC: 89.6 x10_2/uL
  KIDNEY_L: 0.9 g
  KIDNEY_R: 1 g
  KIDNEY_TOTAL: 1.9 g
  LIVER: 8.8 g
  A/G: 1.3
  ALP: 1401 IU/L
  ALT: 43.4 IU/L
  AST: 73.8 IU/L
  BUN: 11.6 mg/dL
  CRE: 0.2 mg/dL
  Ca: 10.9 mg/dL
  Cl: 106 meq/L
  DBIL: 0 mg/dL
  GLC: 170.4 mg/dL
  IP: 8.8 mg/dL
  K: 4.3 meq/L
  LDH: 168 IU/L
  Na: 140.8 meq/L
  PL: 120.8 mg/dL
  RALB: 3.1 g/dL
  TBIL: 0.014 mg/dL
  TC: 66.8 mg/dL
  TG: 51.4 mg/dL
  TP: 5.6 g/dL
  gamma-GTP: 1.2 IU/L
24 h
  TERMINAL_BW: 224.5 g
  APTT: 22.3 s
  Bas: 0%
  Eos: 1%
  Fbg: 316.8 mg/dL
  Hb: 13.7 g/dL
  Ht: 40.8%
  Lym: 80%
  MCH: 20.6 pg
  MCHC: 33.5%
  MCV: 61.5 fL
  Mono: 2.6%
  Neu: 15.2%
  PT: 15.9 s
  Plat: 146.8 x10_4/uL
  RBC: 664.2 x10_4/ul
  Ret: 7.2%
  WBC: 79.6 x10_2/uL
  KIDNEY_L: 0.9 g
  KIDNEY_R: 1 g
  KIDNEY_TOTAL: 1.9 g
  LIVER: 10.2 g
  A/G: 1.2
  ALP: 1615.2 IU/L
  ALT: 38.6 IU/L
  AST: 67.6 IU/L
  BUN: 16.4 mg/dL
  CRE: 0.2 mg/dL
  Ca: 11.1 mg/dL
  Cl: 106.2 meq/L
  DBIL: 0 mg/dL
  GLC: 186 mg/dL
  IP: 7.8 mg/dL
  K: 4.3 meq/L
  LDH: 175.8 IU/L
  Na: 142.6 meq/L
  PL: 145.8 mg/dL
  RALB: 3.1 g/dL
  TBIL: 0.006 mg/dL
  TC: 79.2 mg/dL
  TG: 94.4 mg/dL
  TP: 5.6 g/dL
  gamma-GTP: 1.8 IU/L
